How the values were obtained:
CDK2/Cyclin E1(14-475) [1] = target: T1, CDK2/Cyclin E1(14-475) (Homo sapiens, UniProt P24941); assay: Caliper LabChip EZ Reader mobility shift assay, inhibition of CDK2/Cyclin E1 activity; assay type: biochemical; details: class symbols A-D
Summary of the method: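 CDK2/Cyclin E1(14-475) pre-incubated 30 min with compound and ATP, then reaction started with 5-FAM-QSPKKG-CONH2; final 2.5 nM enzyme, 100 μM ATP, 1.5 μM peptide, HEPES pH 7.5. Stopped with EDTA after 100 min; substrate/product conversion by capillary electrophoresis mobility shift, IC50 from four-parameter fit.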

Kuramochi cells [2] = assay: BrdU cell proliferation assay (colorimetric ELISA), Kuramochi cells; assay type: cell-based; details: class symbols A-D
Summary of the method: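 Kuramochi cells (2,000/well, with Kuramochi RB^KO cells as a specificity control) were treated with a 4-point, 3-fold dilution series made from 10 mM compound stocks and left for 4 days at 37 °C. Proliferation was measured by 1 h BrdU labelling, then anti-BrdU peroxidase ELISA read at 450 nm. Signals were background-subtracted and normalized to DMSO wells.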

Kuramochi cells [3] = assay: Incucyte cell proliferation assay, Kuramochi cells labeled with mApple-H2B; assay type: cell-based; details: class symbols A-D
Procedure: Kuramochi cells labeled with mApple-H2B and Kuramochi RB1−/− cells labeled with NucLight green (Sartorius, 4475) were co-plated on 384-well assay-ready plates along with test compounds at varying concentrations. Plates were placed in the IncuCyte® Sartorius and scanned at 0 and 72 hours. IncuCyte® software was used to count the number of fluorescent nuclei in each well. The fold change in cell count from 0 to 72 hours in wells treated with increasing compounds concentrations (10 pts, ½ log dilution, 20 uM top concentration) was normalized to DMSO control wells. The normalized cell counts were fit with dose response curves and a GI50 was calculated.

CDK2/Cyclin E1(14-475) [4] = target: T1, CDK2/Cyclin E1(14-475); assay: HotSpot kinase inhibition assay (radiometric, Reaction Biology Corporation); assay type: biochemical; details: 10 μM ATP, class symbols A-D
Procedure: Inhibition of a select panel of CDK2/CCNE1 activities in the presence of compounds of the present disclosure was evaluated using the HotSpot™ assay (proprietary to Reaction Biology Corporation). In the assay, activated CDK2/Cyclin E1 catalyzes the transfer of radioactive phosphate to amino acid residues of peptide or protein substrates, which are detected radiometrically. […] Reactions contained 20 mM HEPES pH 7.5, 10 mM MgCl2, 1 mM EGTA, 2 mM DTT, 0.02% Brij35, 0.02 mg/mL BSA, 0.1 mM Na3VO4, 1% DMSO, 1.5 nM CDK2/Cyclin E1(14-475), 10 μM ATP, and 20 μM Histone H1 protein isolated from calf thymus (Sigma).
CDK2/Cyclin E1 […] and Histone H1 were mixed in reaction buffer. To this mixture, was added dose titrations of inhibitor compounds in 100% DMSO by acoustic transfer. The compound mixtures were incubated for 20 minutes, then the kinase reactions were initiated by the addition of a mixture of ATP and ^33P ATP for final concentrations of 10 μM total ATP, 20 μM Histone H1, and 1.5 nM CDK2/Cyclin E1 (14-475). The reactions were carried out for 120 minutes, then spotted on a P81 ion exchange filter paper, and extensively washed with 0.75% phosphoric acid. The resulting radioactive counts were normalized to yield % activity, plotted against compound concentration, and fit to a four-parameter equation to determine the IC50 for each compound.

Structure (SMILES)	IC50 (CDK2/Cyclin E1(14-475) [1])	IC50 (Kuramochi cells [2])	GI50 (Kuramochi cells [3]; 72 h)	GI50 (Kuramochi cells [3]; 72 hours)	IC50 (CDK2/Cyclin E1(14-475) [4])
CNC(=O)C(NC(=O)C1CN(C(=O)Cc2c[nH]c3cc(Cl)ccc23)CC2CN(C(=O)c3ccc(OC(C)C)c(OC)c3)CC21)[C@H](C)OCc1ccccc1 (single isomer, unassigned) [I-145]	≤ 0.5 µM	0.5 to 5 µM	1 to 10 µM	–	–
CNC(=O)[C@@H](NC(=O)C1CN(C(=O)Cc2c[nH]c3cc(Cl)ccc23)CC2CN(C(=O)c3ccc(OC(C)C)c(OC)c3)CC21)[C@H](C)OCc1ccccc1 (single isomer, unassigned) [I-146]	≤ 0.5 µM	> 10 µM	10 to 20 µM	–	–
CNC(=O)[C@@H](NC(=O)C1CN(C(=O)Cc2c[nH]c3cc(Cl)ccc23)CC2CN(C(=O)c3ccc(OC(C)C)c(OC)c3)CC21)[C@H](C)OCc1ccccc1 (single isomer, unassigned) [I-147]	> 10 µM	> 10 µM	–	> 20 µM	–
CNC(=O)[C@@H](NC(=O)C1CN(C(=O)Cc2c[nH]c3cc(Cl)ccc23)CC2CN(C(=O)c3ccc(OC(C)C)c(OC)c3)CC21)[C@H](C)OCc1ccccc1 (single isomer, unassigned) [I-148]	0.5 to 5 µM	> 10 µM	–	> 20 µM	–
COc1cc(C(=O)N2CC3CN(C(=O)Cc4c[nH]c5cc(Cl)ccc45)CC(C(=O)NCc4ccc(C)nn4)C3C2)ccc1OC(C)C (single isomer, unassigned) [I-261]	> 10 µM	–	> 20 µM	–	–
COc1cc(C(=O)N2CC3CN(C(=O)Cc4c[nH]c5cc(Cl)ccc45)CC(C(=O)NCc4ccc(C)nn4)C3C2)ccc1OC(C)C (single isomer, unassigned) [I-262]	> 10 µM	–	–	> 20 µM	–
CNC(=O)[C@H](CCCc1ccccc1)NC(=O)C1CN(C(=O)Cc2c[nH]c3cc(Cl)ccc23)CC2CN(C(=O)c3ccc4[nH]c(C)cc4c3)CC21 (some centres unmarked) [I-2]	–	> 10 µM	–	–	10 to 100 µM
CNC(=O)[C@H](CCCc1ccccc1)NC(=O)C1CN(C(=O)Cc2c[nH]c3cc(Cl)ccc23)CC2CN(C(=O)c3cc(-c4ccccc4)on3)CC21 (some centres unmarked) [I-13]	> 10 µM	5 to 10 µM	–	–	> 100 µM
CNC(=O)[C@H](CCCc1ccccc1)NC(=O)C1CN(C(=O)Cc2c[nH]c3cc(Cl)ccc23)CC2CN(C(=O)c3ccc4nccnc4c3)CC21 (some centres unmarked) [I-17]	–	> 10 µM	–	–	> 100 µM
CNC(=O)[C@H](CCCc1ccccc1)NC(=O)C1CN(C(=O)Cc2c[nH]c3cc(Cl)ccc23)CC2CN(C(=O)c3cc(-c4ccccc4)[nH]n3)CC21 (some centres unmarked) [I-19]	> 10 µM	0.5 to 5 µM	–	–	≤ 1 µM
CNC(=O)[C@H](CCCc1ccccc1)NC(=O)C1CN(C(=O)Cc2c[nH]c3cc(Cl)ccc23)CC2CN(C(=O)c3ccc(O)c(OC)c3)CC21 (some centres unmarked) [I-32]	–	> 10 µM	–	–	> 100 µM
CNC(=O)[C@H](CCCc1ccccc1)NC(=O)C1CN(C(=O)Cc2c[nH]c3cc(Cl)ccc23)CC2CN(C(=O)c3cccc(Oc4ccccc4)c3)CC21 (some centres unmarked) [I-35]	–	> 10 µM	–	–	> 100 µM
CNC(=O)[C@H](CCCc1ccccc1)NC(=O)C1CN(C(=O)Cc2c[nH]c3cc(Cl)ccc23)CC2CN(C(=O)c3cncc(OC)n3)CC21 (some centres unmarked) [I-42]	–	> 10 µM	–	–	> 100 µM
CNC(=O)[C@H](CCCc1ccccc1)NC(=O)C1CN(C(=O)Cc2c[nH]c3cc(Cl)ccc23)CC2CN(C(=O)c3ccccc3)CC21 (some centres unmarked) [I-50]	–	> 10 µM	–	–	1 to 10 µM
CNC(=O)[C@H](CCCc1ccccc1)NC(=O)C1CN(C(=O)Cc2c[nH]c3cc(Cl)ccc23)CC2CN(C(=O)c3ccc4[nH]nnc4c3)CC21 (some centres unmarked) [I-62]	–	> 10 µM	–	–	> 100 µM
CNC(=O)[C@H](CCCc1ccccc1)NC(=O)C1CN(C(=O)Cc2c[nH]c3cc(Cl)ccc23)CC2CN(C(=O)c3cnc4nccn4c3)CC21 (some centres unmarked) [I-64]	–	> 10 µM	–	–	10 to 100 µM
CCOc1cccc(C(=O)N2CC3CN(C(=O)Cc4c[nH]c5cc(Cl)ccc45)CC(C(=O)N[C@@H](CCCc4ccccc4)C(=O)NC)C3C2)c1 (some centres unmarked) [I-67]	–	–	–	–	10 to 100 µM

Structure (SMILES)	IC50 (CDK2/Cyclin E1(14-475) [1])	IC50 (Kuramochi cells [2])	GI50 (Kuramochi cells [3]; 72 h)	GI50 (Kuramochi cells [3]; 72 hours)	IC50 (CDK2/Cyclin E1(14-475) [4])
CNC(=O)[C@H](CCCc1ccccc1)NC(=O)C1CN(C(=O)Cc2c[nH]c3cc(Cl)ccc23)CC2CN(C(=O)c3ccc4c(c3)OCCO4)CC21 (some centres unmarked) [I-77]	–	> 10 µM	–	–	> 100 µM
CNC(=O)[C@H](CCCc1ccccc1)NC(=O)C1CN(C(=O)Cc2c[nH]c3cc(Cl)ccc23)CC2CN(C(=O)c3cc(C4CC4)on3)CC21 (some centres unmarked) [I-81]	–	> 10 µM	–	–	10 to 100 µM
CNC(=O)[C@@H](NC(=O)C1CN(C(=O)Cc2c[nH]c3cc(Cl)ccc23)CC2CN(C(=O)c3ccc(OC(C)C)c(OC)c3)CC21)[C@H](C)OCc1ccccc1 (some centres unmarked) [I-106]	≤ 0.5 µM	0.5 to 5 µM	1 to 10 µM	–	–
CNC(=O)[C@H](Cc1ccccc1)NC(=O)C1CN(C(=O)Cc2c[nH]c3cc(Cl)ccc23)CC2CN(C(=O)c3ccc(OC(C)C)c(OC)c3)CC21 (some centres unmarked) [I-122]	–	–	–	–	10 to 100 µM
CNC(=O)[C@H](Cc1ccc(O)cc1)NC(=O)C1CN(C(=O)Cc2c[nH]c3cc(Cl)ccc23)CC2CN(C(=O)c3ccc(OC(C)C)c(OC)c3)CC21 (some centres unmarked) [I-123]	–	–	–	–	10 to 100 µM
CNC(=O)[C@@H](C)NC(=O)C1CN(C(=O)Cc2c[nH]c3cc(Cl)ccc23)CC2CN(C(=O)c3ccc(OC(C)C)c(OC)c3)CC21 (some centres unmarked) [I-124]	–	> 10 µM	–	–	> 100 µM
CNC(=O)[C@H](C)NC(=O)C1CN(C(=O)Cc2c[nH]c3cc(Cl)ccc23)CC2CN(C(=O)c3ccc(OC(C)C)c(OC)c3)CC21 (some centres unmarked) [I-125]	–	–	–	–	10 to 100 µM
CNC(=O)[C@H](CCCc1ccccc1)NC(=O)C1CN(C(=O)Cc2c[nH]c3cccc(Cl)c23)CC2CN(C(=O)c3ccc(OC(C)C)c(OC)c3)CC21 (some centres unmarked) [I-221]	–	> 10 µM	–	–	> 100 µM
CNC(=O)[C@H](CCCc1ccccc1)NC(=O)C1CN(C(=O)Cc2c[nH]c3c(Cl)cccc23)CC2CN(C(=O)c3ccc(OC(C)C)c(OC)c3)CC21 (some centres unmarked) [I-222]	–	–	–	–	1 to 10 µM
CNC(=O)[C@H](CCCc1ccccc1)NC(=O)C1CN(C(=O)Cc2c[nH]c3cc(OC)ccc23)CC2CN(C(=O)c3ccc(OC(C)C)c(OC)c3)CC21 (some centres unmarked) [I-235]	–	–	–	–	1 to 10 µM
CNC(=O)[C@@H](NC(=O)C1CN(C(=O)Cc2c[nH]c3cc(Cl)ccc23)CC2CN(C(=O)c3cc(-c4ccccc4)n[nH]3)CC21)[C@H](C)OCC1CCCCC1 (stereo partly drawn) [I-249, 5-(2-(6-chloro-1H-indol-3-yl)acetyl)-N-((2S,3S)-3-(cyclohexylmethoxy)-1-(methylamino)-1-oxobutan-2-yl)-2-(3-phenyl-1H-pyrazole-5-carbonyl)octahydro-1H-pyrrolo[3,4-c]pyridine-7-carboxamide]	> 10 µM	> 10 µM	–	–	–
CNC(=O)[C@@H](NC(=O)C1CN(C(=O)Cc2c[nH]c3cc(Cl)ccc23)CC2CN(C(=O)c3cc(-c4ccccc4)n[nH]3)CC21)[C@H](C)OCc1ccccc1 (some centres unmarked) [I-250]	0.5 to 5 µM	> 10 µM	–	–	–
CNC(=O)[C@@H](NC(=O)C1CN(C(=O)Cc2c[nH]c3cc(Cl)ccc23)CC2CN(C(=O)c3cc(-c4ccccc4)n[nH]3)CC21)[C@@H](C)OCC1CCCCC1 (some centres unmarked) [I-251]	> 10 µM	5 to 10 µM	–	–	> 100 µM
CNC(=O)[C@@H](NC(=O)C1CN(C(=O)Cc2c[nH]c3cc(Cl)ccc23)CC2CN(C(=O)c3cc(-c4ccccc4)n[nH]3)CC21)[C@@H](C)OCc1ccccc1 (some centres unmarked) [I-252]	> 10 µM	> 10 µM	–	–	–
CNC(=O)[C@H](CCCc1ccccc1)NC(=O)C1CN(C(=O)Cc2ccnc3ccccc23)CC2CN(C(=O)c3ccc(OC(C)C)c(OC)c3)CC21 (stereo partly drawn) [I-253, 2-(4-isopropoxy-3-methoxybenzoyl)-N—((S)-1-(methylamino)-1-oxo-5-phenylpentan-2-yl)-5-(2-(quinolin-4-yl)acetyl)octahydro-1H-pyrrolo[3,4-c]pyridine-7-carboxamide]	> 10 µM	> 10 µM	–	–	–
COC(=O)[C@@H](NC(=O)C1CN(C(=O)Cc2c[nH]c3cc(Cl)ccc23)CC2CN(C(=O)c3ccc(OC(C)C)c(OC)c3)CC21)[C@H](C)OCc1ccccc1 (stereo partly drawn) [I-255, methyl (2S,3S)-3-(benzyloxy)-2-(5-(2-(6-chloro-1H-indol-3-yl)acetyl)-2-(4-isopropoxy-3-methoxybenzoyl)octahydro-1H-pyrrolo[3,4-c]pyridine-7-carboxamido)butanoate]	≤ 0.5 µM	0.5 to 5 µM	–	–	–

From patent US12053459B2, “CDK2 inhibitors and methods of using the same” (Cedilla Therapeutics, Inc., priority 2021, dated 2024)
